# Measurements: patent US4092426A, “Novel aminobenzoic acid derivatives, process for preparing the same and pharmaceutical composition containing the same” (Chugai Seiyaku Kabushiki Kaisha, priority 1975, dated 1978)
# Where a name gives a salt, the structure may show the parent alone.
# How the values were obtained:
# [1] = system: Pseudomonas aeruginosa Pa-II; assay: Activity for Protecting from Infection by Bucillus Pyocyaneous, with carbenicillin; type: in vivo; conditions: mouse; with carbenicillin
# Protocol: As test animals, ddY strain male mice (5 week old) which were divided into groups of 9 members each were used. Each mouse was intraperitoneally administered with 10^6 Pseudomonas aeruginosa Pa-II, and 1.5 hours after the administeration, subcutaneously administered one shot of carbenicillin, an antibiotic. The test compound, disodium salt of N-2'-carboxyphenyl-4-chloroanthranilic acid, was orally administered once a day in a dose of 2 mg/head one and two days before the inoculation, respectively. The activity of the test compound was evaluated by observing the test animals for 54 hours after the inoculation.
# Sarcoma-180 = assay: Antitumor Activity on Transplanted Tumor Cells (Sarcoma-180); type: in vivo, ddY strain male mice; conditions: 10 mg/kg oral once a day for 11 days; tumor weight 14 days after transplantation
# Source text: For test animals, ddY strain male mice weighing 20 - 25 g were used dividing into groups of 9 or 10 members each. Each of the mice was subjected to transplantation of 10^6 tumor cells (Sarcoma-180) at a portion of the root of a hind paw by subcutaneous injection to induce solid tumor. The test compound, disodium salt of N-2'-carboxyphenyl-4-chloroanthranilic acid, was orally administered once a day for 11 days from the day that transplantation was made. Fourteen days after the transplantation, the grown tumor tissue was taken out from each mouse and its wet weight was measured to evaluate antitumor activity of the test compound. […] For the reasons stated above, it is assumed that the activity of the test compound is based on host-mediated antitumor activity.
# Adjuvant arthritis = assay: Activity for Treating Adjuvant Arthritis (hind paw volume); type: in vivo, Sprague Dawley strain male rats
# Protocol: Sprague Dawley strain male rats (eight week old) were used as test animals. […] Seventeen days after the sensitization, degree of swelling of hind pawls of each rat was determined by measuring the volume of its hind paws and the rats were divided into groups of 10 members each so that average degree of swelling for each of the groups was approximately equal. Each group of rats was orally administered with the test compound, disodium salt of N-2'-carboxyphenyl-4-chloroanthranilic acid, in a dose as shown in Table 5 once a day for a week starting on the seventeenth day after the sensitization. Degree of swelling of hind paws of each rat was measured every second or third day after the completion of the administration of the test compound till the 31st day from the sensitization. The reduction in volume of the hind paws was used as an index to evaluate the pharmacological activity.
# The results of the statistical test which was made on the values obtained on the 24th and 31st days from the sensitization are shown in Table 5.
# [2] = system: Salmonella enteritidis TO-1; assay: Activity for Protecting from Infection by Salmonellae, with streptomycine; type: in vivo; conditions: mouse; oral 2 mg/head; with streptomycine 0.5 mg/head s.c.
# Protocol: As test animals, ddY strain male mice (5 week old) which were divided into groups of 7 members each were used. Each mouse was intraperitoneally inoculated with 10^5 Salmonella enteritidis TO-1, and 3 hours after the inoculation, was subcutaneously administered one shot of streptomycine in a dose of 0.5 mg/head.
# lymphocites [3] = assay: Activity for Promoting Blastogenesis of Lymphocites (in vitro); type: cell-based, C3 H/He strain male mice; conditions: 10^-1 to 10^-2 μg/ml
# Protocol: In this Experiment, influence of the test compound disodium salt of N-2'-carboxyphenyl-4-chloroanthranilic acid on blastogenesis of lymphocites was studied by the use of spleen cells and lymphonoid cells of mouse and rat. For in vitro test, C3 H/He strain male mice and for in vivo Wistar-Imamichi strain male rats were used respectively. Concanavallin A manufactured by Sigma was used as the blastogenetic factor in the in vitro test and lymphocites were cultured by the use of medium of RPMI 1640 manufactured by Grand Island Biological Co. The cultivation of the lymphocites was carried out in the medium at 37° C in a 5% carbon dioxide atmosphere for about 48 hours and after the addition of 0.5 μCi/ml of ^3 H-thymidine, the cells in the medium were incubated for 16 hours and then the lymphocites were separated. The radioactivity of the separated cells was measured by a scintillation counter and the value was evaluated as an indicator of blastogenetic degree. For the in vivo test, the in vitro test was repeated except that each rat was orally administered with the test compound in a dose of 5 or 50 mg/kg. In this case, the rats administered with the test compound were divided into groups of 3 members each and the cells to be cultivated from the rats in each group were placed under the same cultivation conditions. […]
# [4] = system: autoimmune glomerulonephritis; assay: Activity for Treating a Model of Autoimmune Disease (glomerulonephritis); type: in vivo, New Zealand Black/White F1 female mice
# Protocol: Pharmacological activity of the test compound, disodium salt of N-2'-carboxyphenyl-4-chloroanthranilic acid, was studied by the use of glomerulonephritis of New Zealand Black/White F1 female mice as a model of autoimmune disease. The test animals were divided into groups of 8 members each and orally administered with the test compound in a dose of 5 mg/kg or 50 mg/kg once a day from 8 week old. Development of the disease was evaluated by measuring the level of protein in urine with Combistix test paper (Ames Co., Inc.). It was confirmed that the evaluation by the test paper closely corresponds to the results of a quantitative analysis by a sulfosalicyclic acid method. Changes in average level of protein in urine each of the groups during a period of from 20 weeks old to 35 weeks old of the mice are shown in FIG. 2. […] Further, 3 mice among 8 mice of the control group were died from glomerulonephritis during the period of from 35 to 40 weeks from their birth, while there was no death in the groups to which the test compound had been administered.
# lymphocites [5] = assay: Activity for Promoting Blastogenesis of Lymphocites (in vivo); design: species or system Wistar-Imamichi strain male rats
# Protocol: In this Experiment, influence of the test compound disodium salt of N-2'-carboxyphenyl-4-chloroanthranilic acid on blastogenesis of lymphocites was studied by the use of spleen cells and lymphonoid cells of mouse and rat. For in vitro test, C3 H/He strain male mice and for in vivo Wistar-Imamichi strain male rats were used respectively. Concanavallin A manufactured by Sigma was used as the blastogenetic factor in the in vitro test and lymphocites were cultured by the use of medium of RPMI 1640 manufactured by Grand Island Biological Co. The cultivation of the lymphocites was carried out in the medium at 37° C in a 5% carbon dioxide atmosphere for about 48 hours and after the addition of 0.5 μCi/ml of ^3 H-thymidine, the cells in the medium were incubated for 16 hours and then the lymphocites were separated. The radioactivity of the separated cells was measured by a scintillation counter and the value was evaluated as an indicator of blastogenetic degree. For the in vivo test, the in vitro test was repeated except that each rat was orally administered with the test compound in a dose of 5 or 50 mg/kg. In this case, the rats administered with the test compound were divided into groups of 3 members each and the cells to be cultivated from the rats in each group were placed under the same cultivation conditions. The results of the experiments are shown in FIG. 4 (in vitro) and FIG. 5 (in vivo), respectively.
# [6] = system: plaque forming cells (PFC) in the spleen; assay: Activity for Recovering Immune Depletion by cortisone: plaque forming cells (PFC) in the spleen; type: in vivo, IV CS strain male mice; conditions: 10 mg/kg oral, cortisone-treated
# Protocol: (§1) As test animals, IV CS strain male mice (5 week old) were used by dividing them into groups of 5 members each. Each mouse was intraperitoneally administered with cortisone in a dose of 60 mg/kg once a day for 5 days. Three days after the first administration, the sensitization with an antigen, sheep red blood cell (SRBC), was made by injecting the antigen into the mouse through the tail vein. Each mouse was orally administered with the test compound, disodium salt of N-2'-carboxyphenyl-4-chloroanthranilic acid, a day after the sensitization. Five days after the sensitization, the number of plaque forming cells (PFC) in the spleen was measured in a usual manner.
# antibody in blood = assay: Titer of antibody in blood of cortisone-treated mice (hemolysing method); type: in vivo, IV CS strain male mice
# Protocol: as §1
# * Titer of antibody in blood is indicated by a dilution degree of 50%
smiles,measurement,setting,value
O=C(O)c1ccccc1Nc1cc(Cl)ccc1C(=O)O [disodium salt of N-2'-carboxyphenyl-4-chloroanthranilic acid],bacteriocidal activity of the antibiotic with the test compound,[1],improved bacteriocidal activity
same,suppression of tumor growth (Sarcoma-180),Sarcoma-180,significant activity for suppression of tumor growth
same,volume of hind paws,"Adjuvant arthritis; 0.1 mg/kg oral, day 24 after the sensitization",3.524 ± 0.170 mL
same,volume of hind paws,"Adjuvant arthritis; 0.1 mg/kg oral, day 31 after the sensitization",3.762 ± 0.216 mL
same,volume of hind paws,"Adjuvant arthritis; 1 mg/kg oral, day 24 after the sensitization",3.214 ± 0.161 mL
same,volume of hind paws,"Adjuvant arthritis; 1 mg/kg oral, day 31 after the sensitization",3.289 ± 0.223 mL
same,volume of hind paws,"Adjuvant arthritis; 5 mg/kg oral, day 24 after the sensitization, ** P<0.01",3.175 ± 0.100 mL
same,volume of hind paws,"Adjuvant arthritis; 5 mg/kg oral, day 31 after the sensitization, * P<0.05",3.102 ± 0.141 mL
same,volume of hind paws,"Adjuvant arthritis; 10 mg/kg oral, day 24 after the sensitization, ** P<0.01",3.027 ± 0.126 mL
same,volume of hind paws,"Adjuvant arthritis; 10 mg/kg oral, day 31 after the sensitization, * P<0.05",3.121 ± 0.176 mL
same,volume of hind paws,"Adjuvant arthritis; 100 mg/kg oral, day 24 after the sensitization",3.350 ± 0.168 mL
same,volume of hind paws,"Adjuvant arthritis; 100 mg/kg oral, day 31 after the sensitization",3.482 ± 0.170 mL
same,activity for treating adjuvant arthritis of rat,Adjuvant arthritis; 5 or 10 mg/kg oral,significant level of activity
same,bacteriocidal activity of the antibiotic with the test compound,[2],improved bacteriocidal activity
same,activity of Concanavallin A (blastogenesis of lymphocites),lymphocites [3],improved the activity of Concanavallin A
same,suppression of autoimmune glomerulonephritis,[4]; 5 or 50 mg/kg oral once a day,significantly shows pharmacological activities to suppress autoimmune glomerulonephritis
same,level of protein in urine,"[4]; 5 or 50 mg/kg oral once a day, 20 to 35 weeks old, control rose after around 27 weeks",maintained a relatively steady level
same,death from glomerulonephritis,"[4]; 5 or 50 mg/kg oral, 35 to 40 weeks from birth, control 3 among 8 died",no death
same,degree of promotion (S.I. value) of blastogenesis,"lymphocites [5]; rat, oral 5 or 50 mg/kg, one day before Concanavallin A",about twice as large as that of the control
same,activity of Concanavallin A,"lymphocites [5]; rat, oral 5 or 50 mg/kg, one day before Concanavallin A, vs control",increased to about double
same,improvement of the activity of Concanavallin A,"lymphocites [5]; rats or mice, four days before Concanavallin A",the improvement of the activity was observed
same,number of PFC,[6],significantly increased
same,Titer of Antibody (dilution degree of 50% hemolysis),antibody in blood; Cortisone + Test Compound (10 mg/kg),10^10
same,Titer of Antibody (dilution degree of 50% hemolysis),antibody in blood; Cortisone + Test Compound (50 mg/kg),10^6
